Measured values as given in US10828308B2, “Treatment of non-alcoholic fatty liver disease or non-alcoholic steatohepatitis with delayed-release 6-mercaptopurine” (Hadasit Medical Research Services and Development Ltd., priority 2015, dated 2020).

Test system: STAM model of non-alcoholic steatohepatitis (NASH mice)
Test: In vivo efficacy study of DR6-MP in STAM model of non-alcoholic steatohepatitis
Set-up: species or system C57BL/6 mice
Details: 10 mg/kg orally once daily from 6 to 9 weeks of age
Excerpt: Pathogen-free 14 day-pregnant C57BL/6 mice were obtained. NASH was established in male mice by a single subcutaneous injection of 200 τg streptozotocin after birth and feeding with a high fat diet ad libitum after 4 weeks of age (day 28±2). Mice were randomized into 5 groups of 8 mice at 6 weeks of age (day 42±2), the day before the start of treatment. Group 1 (Normal): Eight normal mice were fed with normal diet ad libitum without any treatment until 9 weeks of age. Group 2 (Vehicle): Eight NASH mice were orally administered vehicle [0.5% Methyl cellulose] in a volume of 10 mL/kg once daily from 6 to 9 weeks of age. […]
Mice in all groups were sacrificed for the following assays at 9 weeks of age: • Measurement of organ weight • Individual liver weight was measured. • Liver-to-body weight ratio was calculated. • Biochemical assays • Serum ALT and AST levels were measured. • Liver triglyceride contents were quantified. • Histological analyses for liver sections (according to a routine method). • HE staining and estimation of NAFLD Activity score. • Sirius-red staining and estimation of fibrosis area. • Immunochemical staining for F4/80 and estimation of the percentage of inflammation area. • Gene expression assays using total RNA from the liver. • Real-time RT-PCR analyses were performed for TNF-α, INF-γ, IL-10, MCP-1, CCR2, α-SMA, TGF-β, Collagen Type 1, Collagen Type 3, TIMP-1.

CCCc1nc2c(C)cc(-c3nc4ccccc4n3C)cc2n1Cc1ccc(-c2ccccc2C(=O)O)cc1 [Telmisartan]
fibrosis area (Sirius red-positive area) compared with the Vehicle group: significant decreases in fibrosis area | Sirius red-positive area (%) (mean ± SD) (liver sections at 9 weeks): 0.74 ± 0.21%
